Measured values from patent publication US20230085307A1, “PYRIDAZINONE COMPOUND AND HERBICIDE” (NISSAN CHEMICAL CORPORATION, priority 2019, published 2023).

How the values were obtained:
windgrass [1] = assay: Test Example 4: herbicidal effect by soil treatment (Table 19, symbol L); format: in vivo, windgrass (Apera spica-venti); conditions: amount of applied herbicide 320 g/ha
Outline: (§1)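 Scoring uses the grading scale of an earlier test, three weeks post-application. Treatment consists of spraying a diluted emulsion formulation across the surface of sterilized diluvial soil in which seeds are buried near 1.5 cm deep; boxes are kept in a greenhouse between 25° C. and 30° C.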

Chinese sprangletop = assay: Test Example 3: herbicidal effect by foliage application, Wagner pot (Table 18, symbol D); format: in vivo, chinese sprangletop (Leptochloa chinensis); conditions: 320 g/ha
Outline: (§2)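 Plants were sown in alluvial soil held under 0.1–0.5 cm standing water and grown 14 days in a greenhouse at 25–30 °C. An emulsifiable formulation, water-diluted to the set dose, was then sprayed onto the foliage, and effects were scored three weeks later using previously defined criteria.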

redroot pigweed [2] = assay: Test Example 4: herbicidal effect by soil treatment (Table 19, symbol N); format: in vivo, redroot pigweed (Amaranthus retroflexus); conditions: amount of applied herbicide 320 g/ha
Outline: as §1

southern crabgrass [3] = assay: Test Example 4: herbicidal effect by soil treatment (Table 19, symbol F); format: in vivo, southern crabgrass (Digitaria ciliaris); conditions: amount of applied herbicide 320 g/ha
Outline: as §1

Japanese bulrush = assay: Test Example 2: herbicidal activity, application during weed generation under submerged conditions (Table 17, symbol B); format: in vivo, Japanese bulrush (Schoenoplectus juncoides); conditions: AAH 320 g/ha; application during weed generation, submerged conditions
Outline: (§3)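 Alluvial soil in Wagner pots was flooded to 4 cm depth and sown with the three weeds together; pots were kept in a greenhouse at 25° C. to 30° C. At the one to two leaf stage, an emulsion formulation diluted in water to a set rate went onto the water surface; scored three weeks later.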

late watergrass = assay: Test Example 2: herbicidal activity, application during weed generation under submerged conditions (Table 17, symbol A); format: in vivo, late watergrass (Echinochloa oryzicola); conditions: AAH 320 g/ha; application during weed generation, submerged conditions
Outline: as §3

southern crabgrass [4] = assay: Test Example 5: herbicidal effect by foliage application, plastic box (Table 20, symbol F); format: in vivo, southern crabgrass (Digitaria ciliaris); conditions: 320 g/ha, foliage application after 14-day growth, evaluated three weeks after application
Outline: (§4)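 Post-emergence foliar test in sterilized diluvial soil. Compound applied as water-diluted emulsion at a predetermined rate to 14-day-old plants; evaluation at three weeks.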

blackgrass [5] = assay: Test Example 5: herbicidal effect by foliage application, plastic box (Table 20, symbol J); format: in vivo, blackgrass (Alopecurus myosuroides); conditions: 320 g/ha, foliage application after 14-day growth, evaluated three weeks after application
Outline: as §4

barnyard grass [6] = assay: Test Example 4: herbicidal effect by soil treatment (Table 19, symbol H); format: in vivo, barnyard grass (Echinochloa crus-galli); conditions: amount of applied herbicide 320 g/ha
Outline: as §1

lambsquarters [7] = assay: Test Example 5: herbicidal effect by foliage application, plastic box (Table 20, symbol O); format: in vivo, lambsquarters (Chenopodium album); conditions: 320 g/ha, foliage application after 14-day growth, evaluated three weeks after application
Outline: as §4

chickweed [8] = assay: Test Example 4: herbicidal effect by soil treatment (Table 19, symbol P); format: in vivo, common chickweed (Stellaria media); conditions: amount of applied herbicide 320 g/ha
Outline: as §1

chickweed [9] = assay: Test Example 5: herbicidal effect by foliage application, plastic box (Table 20, symbol P); format: in vivo, common chickweed (Stellaria media); conditions: 320 g/ha, foliage application after 14-day growth, evaluated three weeks after application
Outline: as §4

Italian ryegrass [10] = assay: Test Example 5: herbicidal effect by foliage application, plastic box (Table 20, symbol K); format: in vivo, Italian ryegrass (Lolium multiflorum); conditions: 320 g/ha, foliage application after 14-day growth, evaluated three weeks after application
Outline: as §4

velvetleaf [11] = assay: Test Example 4: herbicidal effect by soil treatment (Table 19, symbol M); format: in vivo, velvetleaf (Abutilon theophrasti); conditions: amount of applied herbicide 320 g/ha
Outline: as §1

lambsquarters [12] = assay: Test Example 4: herbicidal effect by soil treatment (Table 19, symbol O); format: in vivo, lambsquarters (Chenopodium album); conditions: amount of applied herbicide 320 g/ha
Outline: as §1

blackgrass [13] = assay: Test Example 4: herbicidal effect by soil treatment (Table 19, symbol J); format: in vivo, blackgrass (Alopecurus myosuroides); conditions: amount of applied herbicide 320 g/ha
Outline: as §1

persian speedwell [14] = assay: Test Example 5: herbicidal effect by foliage application, plastic box (Table 20, symbol R); format: in vivo, Persian speedwell (Veronica persica); conditions: 320 g/ha, foliage application after 14-day growth, evaluated three weeks after application
Outline: as §4

velvetleaf [15] = assay: Test Example 5: herbicidal effect by foliage application, plastic box (Table 20, symbol M); format: in vivo, velvetleaf (Abutilon theophrasti); conditions: 320 g/ha, foliage application after 14-day growth, evaluated three weeks after application
Outline: as §4

barnyard grass [16] = assay: Test Example 3: herbicidal effect by foliage application, Wagner pot (Table 18, symbol H); format: in vivo, barnyard grass (Echinochloa crus-galli); conditions: 320 g/ha
Outline: as §2

windgrass [17] = assay: Test Example 5: herbicidal effect by foliage application, plastic box (Table 20, symbol L); format: in vivo, windgrass (Apera spica-venti); conditions: 320 g/ha, foliage application after 14-day growth, evaluated three weeks after application
Outline: as §4

oval-leafed pondweed = assay: Test Example 2: herbicidal activity, application during weed generation under submerged conditions (Table 17, symbol C); format: in vivo, oval-leafed pondweed (Monochoria vaginalis); conditions: AAH 320 g/ha; application during weed generation, submerged conditions
Outline: as §3

wild oat [18] = assay: Test Example 4: herbicidal effect by soil treatment (Table 19, symbol I); format: in vivo, wild oat (Avena fatua); conditions: amount of applied herbicide 320 g/ha
Outline: as §1

green foxtail [19] = assay: Test Example 4: herbicidal effect by soil treatment (Table 19, symbol G); format: in vivo, green foxtail (Setaria viridis); conditions: amount of applied herbicide 320 g/ha
Outline: as §1

persian speedwell [20] = assay: Test Example 4: herbicidal effect by soil treatment (Table 19, symbol R); format: in vivo, Persian speedwell (Veronica persica); conditions: amount of applied herbicide 320 g/ha
Outline: as §1

green foxtail [21] = assay: Test Example 5: herbicidal effect by foliage application, plastic box (Table 20, symbol G); format: in vivo, green foxtail (Setaria viridis); conditions: 320 g/ha, foliage application after 14-day growth, evaluated three weeks after application
Outline: as §4

barnyard grass [22] = assay: Test Example 5: herbicidal effect by foliage application, plastic box (Table 20, symbol H); format: in vivo, barnyard grass (Echinochloa crus-galli); conditions: 320 g/ha, foliage application after 14-day growth, evaluated three weeks after application
Outline: as §4

Italian ryegrass [23] = assay: Test Example 4: herbicidal effect by soil treatment (Table 19, symbol K); format: in vivo, Italian ryegrass (Lolium multiflorum); conditions: amount of applied herbicide 320 g/ha
Outline: as §1

redroot pigweed [24] = assay: Test Example 5: herbicidal effect by foliage application, plastic box (Table 20, symbol N); format: in vivo, redroot pigweed (Amaranthus retroflexus); conditions: 320 g/ha, foliage application after 14-day growth, evaluated three weeks after application
Outline: as §4

rice flat sedge = assay: Test Example 3: herbicidal effect by foliage application, Wagner pot (Table 18, symbol E); format: in vivo, rice flat sedge (Cyperus iria); conditions: 320 g/ha
Outline: as §2

wild oat [25] = assay: Test Example 5: herbicidal effect by foliage application, plastic box (Table 20, symbol I); format: in vivo, wild oat (Avena fatua); conditions: 320 g/ha, foliage application after 14-day growth, evaluated three weeks after application
Outline: as §4

Which results are given for CCCC(=O)Oc1c(C)nn(C)c(=O)c1-c1c(-c2ccc(F)cc2)sc2c(Cl)cccc12 [4-016]?
Herbicidal effect by soil treatment, L: windgrass (windgrass [1]): 0 (Herbicidal rate of 5% or less (almost no effect)); herbicidal effect on Chinese sprangletop (D) (Chinese sprangletop): 5 (Herbicidal rate of 90% or more (almost completely withered)); Herbicidal effect by soil treatment, N: redroot pigweed (redroot pigweed [2]): 3 (Herbicidal rate of 40% or more and less than 70%); Herbicidal effect by soil treatment, F: southern crabgrass (southern crabgrass [3]): 2 (Herbicidal rate of 20% or more and less than 40%); herbicidal effect rating, B: Japanese bulrush (Japanese bulrush): 0 (Herbicidal rate of 5% or less (almost no effect)); herbicidal effect rating, A: late watergrass (late watergrass): 2 (Herbicidal rate of 20% or more and less than 40%); herbicidal effect on F: southern crabgrass (evaluation grade 0-5) (southern crabgrass [4]): 0 (Herbicidal rate of 5% or less (almost no effect)); herbicidal effect on J: blackgrass (evaluation grade 0-5) (blackgrass [5]): 0 (Herbicidal rate of 5% or less (almost no effect)); Herbicidal effect by soil treatment, H: barnyard grass (barnyard grass [6]): 1 (Herbicidal rate of 5% or more and less than 20%); herbicidal effect on O: lambsquarters (evaluation grade 0-5) (lambsquarters [7]): 1 (Herbicidal rate of 5% or more and less than 20%); Herbicidal effect by soil treatment, P: chickweed (chickweed [8]): 1 (Herbicidal rate of 5% or more and less than 20%); herbicidal effect on P: chickweed (evaluation grade 0-5) (chickweed [9]): 5 (Herbicidal rate of 90% or more (almost completely withered)); herbicidal effect on K: Italian ryegrass (evaluation grade 0-5) (Italian ryegrass [10]): 0 (Herbicidal rate of 5% or less (almost no effect)); Herbicidal effect by soil treatment, M: velvetleaf (velvetleaf [11]): 0 (Herbicidal rate of 5% or less (almost no effect)); Herbicidal effect by soil treatment, O: lambsquarters (lambsquarters [12]): 1 (Herbicidal rate of 5% or more and less than 20%); Herbicidal effect by soil treatment, J: blackgrass (blackgrass [13]): 0 (Herbicidal rate of 5% or less (almost no effect)); herbicidal effect on R: persian speedwell (evaluation grade 0-5) (persian speedwell [14]): 3 (Herbicidal rate of 40% or more and less than 70%); herbicidal effect on M: velvetleaf (evaluation grade 0-5) (velvetleaf [15]): 5 (Herbicidal rate of 90% or more (almost completely withered)); herbicidal effect on barnyard grass (H) (barnyard grass [16]): 3 (Herbicidal rate of 40% or more and less than 70%); herbicidal effect on L: windgrass (evaluation grade 0-5) (windgrass [17]): 5 (Herbicidal rate of 90% or more (almost completely withered)); herbicidal effect rating, C: oval-leafed pondweed (oval-leafed pondweed): 0 (Herbicidal rate of 5% or less (almost no effect)); Herbicidal effect by soil treatment, I: wild oat (wild oat [18]): 0 (Herbicidal rate of 5% or less (almost no effect)); Herbicidal effect by soil treatment, G: green foxtail (green foxtail [19]): 3 (Herbicidal rate of 40% or more and less than 70%); Herbicidal effect by soil treatment, R: persian speedwell (persian speedwell [20]): 0 (Herbicidal rate of 5% or less (almost no effect)); herbicidal effect on G: green foxtail (evaluation grade 0-5) (green foxtail [21]): 0 (Herbicidal rate of 5% or less (almost no effect)); herbicidal effect on H: barnyard grass (evaluation grade 0-5) (barnyard grass [22]): 0 (Herbicidal rate of 5% or less (almost no effect)); Herbicidal effect by soil treatment, K: Italian ryegrass (Italian ryegrass [23]): 0 (Herbicidal rate of 5% or less (almost no effect)); herbicidal effect on N: redroot pigweed (evaluation grade 0-5) (redroot pigweed [24]): 3 (Herbicidal rate of 40% or more and less than 70%); herbicidal effect on rice flat sedge (E) (rice flat sedge): 4 (Herbicidal rate of 70% or more and less than 90%); herbicidal effect on I: wild oat (evaluation grade 0-5) (wild oat [25]): 3 (Herbicidal rate of 40% or more and less than 70%)
